According to patent US9169252B2 (BRISTOL-MYERS SQUIBB COMPANY, priority 2014, dated 2015):
Like-named read-outs stand apart in the source and are kept apart here.

How the values were obtained:
[1] = biological target: IRAK4 (Homo sapiens (Human), UniProt Q9NWZ3); test: IRAK4 Inhibition Assay; format: biochemical; details: ATP 500 μM, read-out: IRAK4 IC50
Method: The assays were performed in U-bottom 384-well plates. […] The reaction was initiated by the combination of IRAK4 with substrates and test compounds. The reaction mixture was incubated at room temperature for 60 min. and terminated by adding 45 μL of 35 mM EDTA to each sample. The reaction mixture was analyzed on the Caliper LABCHIP® 3000 (Caliper, Hopkinton, Mass.) by electrophoretic separation of the fluorescent substrate and phosphorylated product.

[2] = tested on: TLR2 induced IL-6 in peripheral blood mononuclear cells (PBMCs); test: PBMC TLR2 Induced IL-6 Assay; format: cell-based, human; details: IL-6 by ELISA; for EC50: read-out: Cell EC50; for IC50: read-out: Cell IC50
Method: PBMC TLR2 Induced IL-6 Assay
Peripheral blood mononuclear cells (PBMCs) were isolated from human blood containing the anti-coagulant EDTA (2.5 mM) by centrifugation over a FICOLL® gradient. PBMCs (250000 cells/well) were cultured in assay media (RPMI with 10% heat inactivated FCS) with compounds for 30 minutes at 37° C. in a 5% CO2 incubator. Following pretreatment with compounds, cells were stimulated for 5 hours with 10 µg/ml lipoteichoic acid (Invivogen, San Diego, Calif.), a TLR2 agonist. At the end of the culture, plates were centrifuged at 1800 rpm for 10 minutes to pellet the cells.

[3] = Homo sapiens, PBMC, human PBMCs, lipoteichoic acid stimulated
[4] = Homo sapiens, PBMC, PBMC TLR2 Induced IL-6 Assay, lipoteichoic acid stimulation
[5] = human PBMCs, lipoteichoic acid stimulated
[6] = PBMC TLR2 Induced IL-6 Assay, lipoteichoic acid stimulation

IRAK4, sequence (Q9NWZ3 whole entry, species assumed): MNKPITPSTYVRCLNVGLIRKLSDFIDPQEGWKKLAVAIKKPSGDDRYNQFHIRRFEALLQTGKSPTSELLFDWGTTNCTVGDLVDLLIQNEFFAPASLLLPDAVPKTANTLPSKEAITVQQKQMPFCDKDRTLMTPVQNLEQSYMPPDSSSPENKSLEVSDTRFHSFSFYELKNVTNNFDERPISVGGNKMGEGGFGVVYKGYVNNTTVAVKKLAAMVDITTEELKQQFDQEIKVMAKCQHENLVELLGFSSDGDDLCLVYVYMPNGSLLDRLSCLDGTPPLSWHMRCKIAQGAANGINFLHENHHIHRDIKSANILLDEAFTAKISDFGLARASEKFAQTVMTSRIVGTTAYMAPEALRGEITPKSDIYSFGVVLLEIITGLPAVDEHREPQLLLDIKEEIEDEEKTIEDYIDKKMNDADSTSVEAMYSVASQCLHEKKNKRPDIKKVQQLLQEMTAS

Compound	IC50 ([1]; IRAK4 0.6 nM) [nM]	IC50 ([1]; IRAK4 Inhibition Assay) [nM]	IC50 [2, 4] [nM]	other results
CC(C)(O)[C@H](F)CNC(=O)c1cnc(-n2ccc3cc(C#N)cnc32)cc1NCCC(F)(F)F [Example 425]	1.8	–	–	EC50 [2, 3]: 154 nM
CCCCNC(=O)NCc1cnc2c(ccn2-c2cc(NC(C)C)c(C(=O)NC[C@@H](F)C(C)(C)O)cn2)c1 [Example 516]	8.6	–	–	IC50 [2, 3]: 414 nM
CC(C)Nc1cc(-n2ccc3cc(C#N)cnc32)ncc1C(=O)NC[C@H](F)C(C)(C)O [Example 23, (S)-6-(5-cyano-1H-pyrrolo[2,3-b]pyridin-1-yl)-N-(2-fluoro-3-hydroxy-3-methylbutyl)-4-(isopropylamino)nicotinamide]	–	2.6	–	EC50 [2, 4]: 110 nM
Cn1nccc1Nc1cc(-n2ccc3cc(C#N)cnc32)ncc1C(=O)NC[C@@H](F)C(C)(C)O [Example 424]	6	–	–	EC50 [2, 5]: 338 nM
CC(C)(O)[C@H](F)CNC(=O)c1cnc(-n2ccc3cc(C#N)cnc32)cc1NC1CN(S(C)(=O)=O)C1 [Example 476]	3	–	–	EC50 [2, 3]: 198 nM
CC(C)Nc1cc(-n2ccc3cnc(N)nc32)ncc1C(=O)NC[C@@H](F)C(C)(C)O [Example 186, (R)-6-(2-Amino-7H-pyrrolo[2,3-d]pyrimidin-7-yl)-N-(2-fluoro-3-hydroxy-3-methylbutyl)-4-(isopropylamino)nicotinamide]	–	1.3	–	EC50 [2, 4]: 44 nM
CC(C)(O)[C@H](F)CNC(=O)c1cnc(-n2ncc3cc(C#N)cnc32)cc1Nc1ccc(-n2cncn2)cc1 [Example 526]	3.7	–	–	EC50 [2, 3]: 113 nM
CCn1cc(Nc2cc(-n3ccc4cc(C#N)cnc43)ncc2C(=O)NC[C@@H](F)C(C)(C)O)cn1 [Example 372]	–	1.2	2	–
CC(C)(O)[C@H](F)CNC(=O)c1cnc(-n2ncc3cc(Cl)cnc32)cc1Nc1cnn(C2CCOCC2)c1 [Example 352]	–	6.5	170	–
CC(C)Nc1cc(-n2ncc3cc(C#N)cnc32)ncc1C(=O)N[C@H]1CC[C@H](C(C)(C)O)CC1 [Example 148, 6-(5-cyano-1H-pyrazolo[3,4-b]pyridin-1-yl)-N-((trans)-4-(2-hydroxypropan-2-yl)cyclohexyl)-4-(isopropylamino)nicotinamide]	–	1.4	–	EC50 [2, 4]: 64 nM
CC(C)(O)[C@H](F)CNC(=O)c1cnc(N2CCc3cc(C#N)cnc32)cc1NC1COC1 [Example 549]	16.8	–	–	EC50 [2, 3]: 413 nM; IC50 [2, 3]: 757 nM
CCOCCNC(=O)c1cnc(-n2ncc3cc(C#N)cnc32)cc1Nc1cnn(CC(F)F)c1 [Example 392]	–	7.1	16	–
CC(C)(O)[C@H](F)CNC(=O)c1cnc(-n2ccc3cc(C#N)cnc32)cc1NC1CCOCC1F (single isomer, unassigned) [Example 106]	–	1.9	896	EC50 [2, 6]: 896 nM
Cn1cc(Nc2cc(-n3ncc4cc(Cl)cnc43)ncc2C(=O)NC[C@@H](F)C(C)(C)O)cn1 [Example 398]	4.9	–	–	IC50 [2, 3]: 277 nM
CC(C)(O)[C@H](F)CNC(=O)c1cnc(N2CCc3cc(C#N)cnc32)cc1NC1CC1 [Example 616]	10.9	–	–	EC50 [2, 3]: 305 nM; IC50 [2, 3]: 425 nM
CC(C)(O)[C@H](F)CNC(=O)c1cnc(-n2cnc3cc(C#N)cnc32)cc1Nc1cnn(CC(F)F)c1 [Example 375]	–	1.8	156	–
CC(C)CNC(=O)c1cnc(-n2ncc3cc(C#N)cnc32)cc1Nc1cnn(CC(F)F)c1 [Example 391]	–	6.2	241	–
CC(O)CCNc1cc(-n2ccc3cc(C#N)cnc32)ncc1C(=O)NC[C@@H](F)C(C)(C)O (single isomer, unassigned) [Example 461]	2.5	–	–	EC50 [2, 5]: 74 nM; IC50 [2, 5]: 122 nM
CC(C)Nc1cc(-n2ncc3cc(C#N)cnc32)ncc1C(=O)NCCC(C)(F)F [Example 332]	–	13	159	–
CCN(CC)C(=O)NCc1cnc2c(ccn2-c2cc(NC(C)C)c(C(=O)NC[C@@H](F)C(C)(C)O)cn2)c1 [Example 500]	13.2	–	–	IC50 [2, 3]: 546 nM
CC(C)(O)[C@H](F)CNC(=O)c1cnc(-n2ncc3cc(C#N)cnc32)cc1NC1CN(c2ncc(Cl)cn2)C1 [Example 541]	14.4	–	–	IC50 [2, 3]: 149 nM
CC(C)Nc1cc(-n2ncc3cc(C#N)cnc32)ncc1C(=O)Nc1cnn(C2CN(S(C)(=O)=O)C2)c1 [Example 281]	–	7.8	255	–

Compound	IC50 ([1]; IRAK4 0.6 nM) [nM]	IC50 ([1]; IRAK4 Inhibition Assay) [nM]	IC50 [2, 4] [nM]	other results
CC(C)(O)[C@H](F)CNC(=O)c1cnc(-n2ccc3cc(C#N)cnc32)cc1N[C@@H]1CCOC1 [Example 440]	1.9	–	–	EC50 [2, 3]: 72 nM
CS[C@H]1CC[C@H](NC(=O)c2cnc(-n3ccc4cc(C#N)cnc43)cc2NC(C)C)CC1 [Example 101, 6-(5-Cyano-1H-pyrrolo[2,3-b]pyridin-1-yl)-4-(isopropylamino)-N-((trans)-4-(methylthio)cyclohexyl)nicotinamide]	–	7.8	–	EC50 [2, 4]: 112 nM
C[C@@H](F)CNc1cc(-n2ncc3cc(C#N)c(N)nc32)ncc1C(=O)NC[C@@H](F)C(C)(C)O [Example 591]	2.7	–	–	IC50 [2, 3]: 160 nM
Cc1cc(Nc2cc(-n3ncc4cc(C#N)cnc43)ncc2C(=O)NC[C@@H](F)C(C)(C)O)n(C)n1 [Example 413]	7	–	–	IC50 [2, 3]: 382 nM
CC(C)Nc1cc(-n2ncc3cc(C#N)cnc32)ncc1C(=O)Nc1cnn(C2COC2)c1 [Example 268]	–	10.6	171	–
CC[C@H](C)Nc1cc(-n2ncc3cc(C#N)cnc32)ncc1C(=O)NC[C@@H](F)C(C)(C)O [Example 289]	–	4.7	275	–
CC(C)CC(=O)NCc1cnc2c(cnn2-c2cc(NC(C)C)c(C(=O)NC[C@@H](F)C(C)(C)O)cn2)c1 [Example 280]	–	16.9	692	–
CC(F)[C@H](C)Nc1cc(-n2ncc3cc(C#N)cnc32)ncc1C(=O)NC[C@@H](F)C(C)(C)O (single isomer, unassigned) [Example 202]	–	10.6	–	EC50 [2, 4]: 131 nM
CC(C)Nc1cc(-n2ccc3cc(F)cnc32)ncc1C(=O)NC[C@@H](F)C(C)(C)O [Example 38, (R)-6-(5-fluoro-1H-pyrrolo[2,3-b]pyridin-1-yl)-N-(2-fluoro-3-hydroxy-3-methylbutyl)-4-(isopropylamino)nicotinamide]	–	1.6	–	EC50 [2, 4]: 84 nM
C[C@H](CF)Nc1cc(-n2ncc3cc(C#N)cnc32)ncc1C(=O)NC[C@@H](F)C(C)(C)O [Example 114, 6-(5-Cyano-1H-pyrazolo[3,4-b]pyridin-1-yl)-N—((R)-2-fluoro-3-hydroxy-3-methylbutyl)-4-(((R)-1-fluoropropan-2-yl)amino)nicotinamide]	–	4.6	–	–
CC(C)Nc1cc(-n2ncc3cc(Cl)c(N)nc32)ncc1C(=O)NC[C@@H](F)C(C)(C)O [Example 282]	–	–	541	–
CC(Nc1cc(-n2ncc3cc(C#N)cnc32)ncc1C(=O)NC[C@@H](F)C(C)(C)O)C(F)(F)F (stereo partly drawn) [Example 297]	–	–	219	–
Cn1cc(Nc2cc(-n3ncc4cc(C#N)cnc43)ncc2C(=O)NC[C@@H](F)C(C)(C)O)cn1 [Example 387]	–	–	198	–
CC(O)CCNc1cc(-n2ncc3cc(C#N)cnc32)ncc1C(=O)NC[C@@H](F)C(C)(C)O (single isomer, unassigned) [Example 572]	–	–	–	IC50 [2, 3]: 303 nM
CC(C)Nc1cc(-n2ccc3cc(C#N)cnc32)ncc1C(=O)N[C@H]1CC[C@](O)(c2ccnn2C)CC1 [Example 173, 6-(5-Cyano-1H-pyrrolo[2,3-b]pyridin-1-yl)-N-((1s,4s)-4-hydroxy-4-(1-methyl-1H-pyrazol-5-yl)cyclohexyl)-4-(isopropylamino)nicotinamide]	–	–	242	EC50 [2, 4]: 81 nM
CC(C)Nc1cc(-n2ncc3cc(O)cnc32)ncc1C(=O)NC[C@@H](F)C(C)(C)O [Example 153, (R)—N-(2-fluoro-3-hydroxy-3-methylbutyl)-6-(5-hydroxy-1H-pyrazolo[3,4-b]pyridin-1-yl)-4-(isopropylamino)nicotinamide]	–	–	–	EC50 [2, 4]: 160 nM
CC(C)(O)[C@H](F)CNC(=O)c1cnc(-n2ccc3cc(C#N)cnc32)cc1NC1CCC(O)C1 (single isomer, unassigned) [Example 27]	–	–	–	EC50 [2, 6]: 44 nM
CCCNc1cc(-n2ncc3cc(C#N)cnc32)ncc1C(=O)NC[C@@H](F)C(C)(C)O [Example 337]	–	–	765	EC50 [2, 4]: 572 nM
CC(C)(O)[C@H](F)CNC(=O)c1cnc(-n2ccc3cc(C#N)cnc32)cc1N[C@@H]1COC[C@H]1F (single isomer, unassigned) [Example 458]	–	–	–	IC50 [2, 3]: 260 nM; EC50 [2, 5]: 261 nM
CC(C)(O)[C@H](F)CNC(=O)c1cnc(-n2ncc3cc(C#N)cnc32)cc1NC1CCC(F)C1 (stereo partly drawn) [Example 625]	–	–	–	IC50 [2, 5]: 210 nM
[2H]C([2H])([2H])OC(C)(C)[C@H](F)CNC(=O)c1cnc(-n2ccc3cc(C#N)cnc32)cc1NC(C)C [Example 442]	–	–	–	EC50 [2, 3]: 42 nM
